These are literature values, as cited in patent US20240041743A1, “SYNERGISTIC TETRAPEPTIDE COMBINATION” (BASF CORPORATION, priority 2017, published 2024).

Residues, ends and D or L forms follow the SMILES beside them.

One data set has as its system skin firmness. To be noted: 3% Dermican.
The subject of data set [1] is skin texture, skin smoothing, firmness and elasticity. To be noted: 3% Syniorage.

Take `CC(=O)N[C@@H](CCC(N)=O)C(=O)N[C@@H](CC(=O)O)C(=O)N[C@H](C(=O)N[C@@H](Cc1c[nH]cn1)C(=O)O)C(C)C` [Dermican™, N-Acetyl-Glutaminyl-Aspartyl-Valyl-Histidine] (Ac-QDVH-OH): the “bi-daily application needed to achieve an improvement of skin firmness” value in the data set on skin firmness is 4 months. For the same molecule, the “improvement on skin firmness after the first 2 months of application” value in the data set on skin firmness (bi-daily application, first 2 months) is “no improvement was observed”.
In the case of `CC(=O)N1CCC[C@H]1C(=O)N1CCC[C@H]1C(=O)N[C@@H](Cc1ccc(O)cc1)C(=O)N[C@@H](CC(C)C)C(=O)O` [Syniorage™, N-Acetyl-Prolyl-Prolyl-Tyrosyl-Leucine] (Ac-PPYL-OH), the “bi-daily application needed to improve skin texture, skin smoothing, and biomechanical properties of firmness and elasticity” value in data set [1] is recorded as 2 months.
